Measured values as given in PubChem BioAssay AID248 (DTP/NCI, 2004).
Where “and” joins values, the source holds several entries; their conditions need not be identical. Identical values can stand only once. Inconclusive results and toxic doses are left out. No stated cut-off is given here; in the data, active means T/C of 150% or more; inactive means T/C below 125%.

Tested on: L1210 leukemia ip in BDF1 mice, survival T/C
Assay: NCI In Vivo Anticancer Drug Screen. Data for tumor model L1210 Leukemia (intraperitoneal) in B6D2F1 (BDF1) mice
Conditions: endpoint: mean survival time, higher = longer survival
Method in brief: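 Transplanted-tumor mice were given test agent; controls received vehicle only. Survival readings from the two groups were divided (treated over control).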

[1] = dose: 100.0 mg/kg/injection, schedule: Q01DX009 (ip), vehicle: saline with Tween-80
[2] = dose: 100.0 mg/kg/injection, schedule: Q04DX002 (ip), vehicle: saline with Tween-80
[3] = dose: 100.0 mg/kg/injection, schedule: Q04DX003 (ip), vehicle: saline with Tween-80
[4] = dose: 200.0 mg/kg/injection, schedule: Q01DX009 (ip), vehicle: saline with Tween-80
[5] = dose: 200.0 mg/kg/injection, schedule: Q04DX003 (ip), vehicle: saline with Tween-80
[6] = dose: 400.0 mg/kg/injection, schedule: Q01DX009 (ip), vehicle: saline with Tween-80
[7] = dose: 400.0 mg/kg/injection, schedule: Q04DX002 (ip), vehicle: saline with Tween-80
[8] = dose: 25.0 mg/kg/injection, schedule: Q04DX002 (ip), vehicle: saline with Tween-80
[9] = dose: 50.0 mg/kg/injection, schedule: Q04DX002 (ip), vehicle: saline with Tween-80
[10] = dose: 100.0 mg/kg/injection, schedule: Q04DX002 (ip), vehicle: Klucel (hydroxypropylcellulose) (HPC)
[11] = dose: 200.0 mg/kg/injection, schedule: Q04DX002 (ip), vehicle: Klucel (hydroxypropylcellulose) (HPC)
[12] = dose: 400.0 mg/kg/injection, schedule: Q04DX002 (ip), vehicle: Klucel (hydroxypropylcellulose) (HPC)
[13] = dose: 100.0 mg/kg/injection, schedule: Q01DX001 (ip), vehicle: saline
[14] = dose: 200.0 mg/kg/injection, schedule: Q01DX001 (ip), vehicle: saline
[15] = dose: 400.0 mg/kg/injection, schedule: Q01DX001 (ip), vehicle: saline

Measured: T/C

O=S(NOCCCCONS(=O)c1ccccc1)c1ccccc1 (stereo not given)
inactive: dose: 25.0 mg/kg/injection, schedule: Q01DX001 (ip), vehicle: saline with Tween-80 100 % of control | dose: 25.0 mg/kg/injection, schedule: Q04DX003 (ip), vehicle: saline with Tween-80 93 % of control | dose: 50.0 mg/kg/injection, schedule: Q01DX001 (ip), vehicle: saline with Tween-80 95 % of control | dose: 50.0 mg/kg/injection, schedule: Q01DX009 (ip), vehicle: saline with Tween-80 94 % of control and 102 % of control | dose: 50.0 mg/kg/injection, schedule: Q04DX003 (ip), vehicle: saline with Tween-80 96 % of control | dose: 100.0 mg/kg/injection, schedule: Q01DX001 (ip), vehicle: saline with Tween-80 95 % of control and 90 % of control | [1] 95 % of control and 96 % of control | [2] 98 % of control and 89 % of control | [3] 89 % of control | dose: 200.0 mg/kg/injection, schedule: Q01DX001 (ip), vehicle: saline with Tween-80 90 % of control | [4] 96 % of control and 92 % of control | dose: 200.0 mg/kg/injection, schedule: Q04DX002 (ip), vehicle: saline with Tween-80 100 % of control and 91 % of control | [5] 94 % of control | [6] 90 % of control | [7] 102 % of control

CCOC(=O)C1CC(Cl)c2c(ccc3cc(OC)ccc23)N1 (stereo not given)
inactive: dose: 25.0 mg/kg/injection, schedule: Q01DX001 (ip), vehicle: carboxymethylcellulose (CMC) 100 % of control | dose: 25.0 mg/kg/injection, schedule: Q01DX009 (ip), vehicle: carboxymethylcellulose (CMC) 98 % of control and 92 % of control | dose: 25.0 mg/kg/injection, schedule: Q04DX002 (ip), vehicle: carboxymethylcellulose (CMC) 93 % of control and 95 % of control | dose: 25.0 mg/kg/injection, schedule: Q04DX003 (ip), vehicle: carboxymethylcellulose (CMC) 97 % of control | dose: 50.0 mg/kg/injection, schedule: Q01DX001 (ip), vehicle: carboxymethylcellulose (CMC) 107 % of control | dose: 50.0 mg/kg/injection, schedule: Q01DX009 (ip), vehicle: carboxymethylcellulose (CMC) 100 % of control and 91 % of control | dose: 50.0 mg/kg/injection, schedule: Q04DX002 (ip), vehicle: carboxymethylcellulose (CMC) 101 % of control and 103 % of control | dose: 50.0 mg/kg/injection, schedule: Q04DX003 (ip), vehicle: carboxymethylcellulose (CMC) 95 % of control | dose: 100.0 mg/kg/injection, schedule: Q01DX009 (ip), vehicle: carboxymethylcellulose (CMC) 93 % of control | dose: 100.0 mg/kg/injection, schedule: Q04DX002 (ip), vehicle: carboxymethylcellulose (CMC) 95 % of control and 108 % of control | dose: 100.0 mg/kg/injection, schedule: Q04DX003 (ip), vehicle: carboxymethylcellulose (CMC) 95 % of control

O=C(Nc1cccc(C2=NCCN2)c1)c1ccc(C(=O)Nc2cccc(C3=NCCN3)c2)c(Cl)c1
inactive: dose: 0.75 mg/kg/injection, schedule: Q01DX Z (ip), vehicle: carboxymethylcellulose (CMC) 101 % of control | dose: 1.0 mg/kg/injection, schedule: Q01DX009 (ip), vehicle: saline 97 % of control | dose: 1.5 mg/kg/injection, schedule: Q01DX Z (ip), vehicle: carboxymethylcellulose (CMC) 95 % of control and 104 % of control | dose: 2.0 mg/kg/injection, schedule: Q01DX009 (ip), vehicle: saline 97 % of control | dose: 3.0 mg/kg/injection, schedule: Q01DX Z (ip), vehicle: carboxymethylcellulose (CMC) 96 % of control and 98 % of control | dose: 4.0 mg/kg/injection, schedule: Q01DX009 (ip), vehicle: saline 95 % of control | dose: 6.0 mg/kg/injection, schedule: Q01DX Z (ip), vehicle: carboxymethylcellulose (CMC) 93 % of control and 96 % of control | dose: 8.0 mg/kg/injection, schedule: Q01DX009 (ip), vehicle: saline 94 % of control | dose: 9.0 mg/kg/injection, schedule: Q01DX Z (ip), vehicle: methylcellulose (MC) 93 % of control | dose: 12.0 mg/kg/injection, schedule: Q01DX Z (ip), vehicle: carboxymethylcellulose (CMC) 95 % of control | dose: 12.0 mg/kg/injection, schedule: Q01DX Z (ip), vehicle: methylcellulose (MC) 95 % of control | dose: 18.0 mg/kg/injection, schedule: Q01DX Z (ip), vehicle: methylcellulose (MC) 109 % of control | dose: 27.0 mg/kg/injection, schedule: Q01DX Z (ip), vehicle: methylcellulose (MC) 106 % of control

CCN=C(CCl)NS(=O)(=O)c1ccc(C)cc1
inactive: [8] 113 % of control | [9] 109 % of control | [2] 109 % of control

Cc1ccc(-n2ccnc2)c(N=Cc2ccc(N(CCCl)CCCl)cc2C)c1
inactive: [10] 98 % of control | [11] 102 % of control | [12] 124 % of control

C=CS(=O)(=O)CCOc1ccc(Cl)cc1Cl
inactive: dose: 100.0 mg/kg/injection, schedule: Q01DX009 (ip), vehicle: Klucel (hydroxypropylcellulose) (HPC) 96 % of control | dose: 200.0 mg/kg/injection, schedule: Q01DX009 (ip), vehicle: Klucel (hydroxypropylcellulose) (HPC) 95 % of control

O=C(CCCC(=O)NNC(=S)Nc1cccc2ccccc12)NNC(=S)Nc1cccc2ccccc12
inactive: dose: 50.0 mg/kg/injection, schedule: Q01DX001 (ip), vehicle: saline 98 % of control | [13] 93 % of control | [14] 96 % of control | [15] 96 % of control

O=C(Nc1cccc(Cl)c1)OCCN(CCOC(=O)Nc1cccc(Cl)c1)Cc1ccccc1
inactive: [13] 106 % of control | [14] 95 % of control | [15] 97 % of control

NN(CC(=O)O)c1ccccc1
inactive: [1] 100 % of control | [4] 105 % of control | [6] 94 % of control

CCCC(=O)OCC1OC(n2cc(C)c(=O)[nH]c2=O)CC1OC(=O)CCC (stereo not given)
inactive: dose: 100.0 mg/kg/injection, schedule: Q01DX001 (ip), vehicle: carboxymethylcellulose (CMC) 104 % of control | dose: 200.0 mg/kg/injection, schedule: Q01DX001 (ip), vehicle: carboxymethylcellulose (CMC) 93 % of control

C[CH2][Pb]([CH2]C)([CH2]C)[n]1ccnc1
inactive: [10] 95 % of control | [11] 95 % of control | [12] 100 % of control

O=C1C(Cl)=CC(=NBr)C=C1Cl
inactive: dose: 12.5 mg/kg/injection, schedule: Q04DX002 (ip), vehicle: Klucel (hydroxypropylcellulose) (HPC) 88 % of control | dose: 25.0 mg/kg/injection, schedule: Q04DX002 (ip), vehicle: Klucel (hydroxypropylcellulose) (HPC) 92 % of control | dose: 50.0 mg/kg/injection, schedule: Q04DX002 (ip), vehicle: Klucel (hydroxypropylcellulose) (HPC) 98 % of control

OCC1OC(n2c(Cl)nc3cc(Cl)c(Cl)cc32)C(O)C1O (stereo not given)
inactive: dose: 100.0 mg/kg/injection, schedule: Q01DX005 (ip), vehicle: saline 96 % of control | dose: 200.0 mg/kg/injection, schedule: Q01DX005 (ip), vehicle: saline 96 % of control

O=C(Nc1ccccc1)OCC(OC(=O)Nc1ccccc1)C(COC(=O)Nc1ccccc1)OC(=O)Nc1ccccc1 (stereo not given)
inactive: [8] 100 % of control | [9] 100 % of control | [2] 92 % of control | [7] 88 % of control

CC(=O)c1ccccc1C(=O)O
inactive: dose: 50.0 mg/kg/injection, schedule: Q04DX003 (ip), vehicle: Klucel (hydroxypropylcellulose) (HPC) 98 % of control | dose: 100.0 mg/kg/injection, schedule: Q04DX003 (ip), vehicle: Klucel (hydroxypropylcellulose) (HPC) 94 % of control | dose: 200.0 mg/kg/injection, schedule: Q04DX003 (ip), vehicle: Klucel (hydroxypropylcellulose) (HPC) 96 % of control

O=C(NCCCC1C2CCC(C2)C1CNC(=O)Nc1cccc(Cl)c1)Nc1cccc(Cl)c1 (stereo not given)
inactive: [3] 91 % of control | [5] 92 % of control | dose: 400.0 mg/kg/injection, schedule: Q04DX003 (ip), vehicle: saline with Tween-80 87 % of control

Cc1ccc(C)c(OC2CCCCC2=O)c1 (stereo not given)
inactive: [13] 100 % of control | [14] 100 % of control | [15] 91 % of control

COc1ccc2nc3cc(Cl)ccc3c(Nc3ccc(O)c(CN4CCN(C)CC4)c3)c2c1
inactive: dose: 75.0 mg/kg/injection, schedule: Q01DX001 (ip), vehicle: other 96 % of control | dose: 75.0 mg/kg/injection, schedule: Q04DX003 (ip), vehicle: other 94 % of control | dose: 150.0 mg/kg/injection, schedule: Q01DX001 (ip), vehicle: other 100 % of control | dose: 150.0 mg/kg/injection, schedule: Q04DX003 (ip), vehicle: other 97 % of control | dose: 300.0 mg/kg/injection, schedule: Q01DX001 (ip), vehicle: other 97 % of control
